Holding throughout (assay): Broth dilution MIC
What all share (type): cell-based

The test system of one assay is E. faecalis GC 2242. The note with it: Enterococcus faecalis, read-out: Antimicrobial Activity (MIC). As for the experimental part:
(§1) The in vitro antibacterial activity of Example 1 through Example 20 is determined against a spectrum of Gram-positive and Gram-negative bacteria by a standard broth dilution method. Serial dilution of the compounds are made in Mueller-Hinton broth and inoculated with a bacterial suspension. The lowest concentration of compound that inhibited the growth of a bacterial strain after 18 hours of incubation at 35° C. is reported as the minimal inhibitory concentration (MIC) for that strain.

A further assay relates to S. aureus GC 1131. To be noted: Staphylococcus aureus, read-out: Antimicrobial Activity (MIC). As for the experimental part:
as §1

The test system of another assay is CNS GC 4538. The note with it: read-out: Antimicrobial Activity (MIC). As for the experimental part:
as §1

In another assay the test system is P. aeruginosa GC 2214. The note with it: Pseudomonas aeruginosa, read-out: Antimicrobial Activity (MIC). As for the experimental part:
as §1

A further assay has as its system E. coli GC 2203. The note with it: Escherichia coli, read-out: Antimicrobial Activity (MIC). The protocol: as §1
A further assay concerns E. coli GC 4560. To be noted: Escherichia coli, GC4560, 18 h, read-out: Antimicrobial Activity (MIC). As for the experimental part: as §1
The next assay deals with E. coli GC 3226. The note with it: Escherichia coli, read-out: Antimicrobial Activity (MIC). As for the experimental part:
as §1

The next assay deals with CNS GC 4537. The note with it: read-out: Antimicrobial Activity (MIC). The protocol: as §1
Another assay has as its system E. coli GC 4559. The note with it: Escherichia coli, read-out: Antimicrobial Activity (MIC). As for the experimental part:
as §1

The next assay has as its system P. rettgeri GC 4530. The note with it: Providencia rettgeri, read-out: Antimicrobial Activity (MIC). The protocol: as §1
Another assay relates to S. aureus GC 2216. To be noted: Staphylococcus aureus, read-out: Antimicrobial Activity (MIC). The protocol: as §1
For a further assay, the system named is E. faecalis GC 4555. To be noted: Enterococcus faecalis, read-out: Antimicrobial Activity (MIC). As for the experimental part:
as §1

A further assay relates to E. faecalis GC 842. To be noted: Enterococcus faecalis, read-out: Antimicrobial Activity (MIC). The protocol: as §1
The next assay relates to S. marcescens GC 4077. The note with it: Serratia marcescens, read-out: Antimicrobial Activity (MIC). As for the experimental part: as §1
The test system of the next assay is M. morganii GC 4531. To be noted: Morganella morganii, read-out: Antimicrobial Activity (MIC). The protocol: as §1
For the next assay, the system named is CNS GC 4547. The note with it: read-out: Antimicrobial Activity (MIC). The protocol:
as §1

The subject of the next assay is P. aeruginosa GC 4532. To be noted: Pseudomonas aeruginosa, read-out: Antimicrobial Activity (MIC). As for the experimental part: as §1
The test system of the next assay is K. pneumoniae GC 4534. The note with it: Klebsiella pneumoniae, read-out: Antimicrobial Activity (MIC). The protocol:
as §1

The subject of another assay is E. cloacae GC 3783. To be noted: Enterobacter cloacae, read-out: Antimicrobial Activity (MIC). The protocol: as §1
The next assay deals with S. aureus GC 4536. To be noted: Staphylococcus aureus, read-out: Antimicrobial Activity (MIC). As for the experimental part: as §1
[1] abbreviates: GC2242, E. faecalis GC 2242, Mueller-Hinton broth, 18 hours at 35° C.
Where [2] appears, read: GC1131, S. aureus GC 1131, Mueller-Hinton broth, 18 hours at 35° C.
[3] abbreviates: CNS GC 4538, Mueller-Hinton broth, 18 hours at 35° C.
Where [4] appears, read: GC2214, P. aeruginosa GC 2214, Mueller-Hinton broth, 18 hours at 35° C.
Where [5] appears, read: GC2203, E. coli GC 2203, Mueller-Hinton broth, 18 hours at 35° C.
[6] abbreviates: GC3226, E. coli GC 3226, Mueller-Hinton broth, 18 hours at 35° C.
Where [7] appears, read: CNS GC 4537, Mueller-Hinton broth, 18 hours at 35° C.
[8] abbreviates: GC4559, E. coli GC 4559, Mueller-Hinton broth, 18 hours at 35° C.
Where [9] appears, read: GC4530, P. rettgeri GC 4530, Mueller-Hinton broth, 18 hours at 35° C.
[10] abbreviates: GC2216, S. aureus GC 2216, Mueller-Hinton broth, 18 hours at 35° C.
Where [11] appears, read: GC4555, E. faecalis GC 4555, Mueller-Hinton broth, 18 hours at 35° C.
[12] abbreviates: GC842, E. faecalis GC 842, Mueller-Hinton broth, 18 hours at 35° C.
Setting [13] is: GC4077, S. marcescens GC 4077, Mueller-Hinton broth, 18 hours at 35° C.
Setting [14] is: GC4531, M. morganii GC 4531, Mueller-Hinton broth, 18 hours at 35° C.
Where [15] appears, read: CNS GC 4547, Mueller-Hinton broth, 18 hours at 35° C.
[16] abbreviates: GC4532, P. aeruginosa GC 4532, Mueller-Hinton broth, 18 hours at 35° C.
Setting [17] is: GC4534, K. pneumoniae GC 4534, Mueller-Hinton broth, 18 hours at 35° C.
Setting [18] is: GC3783, E. cloacae GC 3783, Mueller-Hinton broth, 18 hours at 35° C.
The mark [19] stands for this setting: GC4536, S. aureus GC 4536, Mueller-Hinton broth, 18 hours at 35° C.

Molecules are shown by their SMILES. Converted amounts (≈) assume the structure as drawn. Like-named read-outs stand apart in the source and are kept apart here. A value given as a limit tells only on which side of the number the result lay.

As for `CO[C@H]1C(O[C@H](C(C(=O)O)N(CCCCCCCCCCCCN2CCOCC2)CCCNC(=O)C(NC(=O)C(NC(=O)NC(C(=O)O)C(C)C)C2CCNC(=N)N2)C(O)C(C)C)[C@H]2O[C@@H](n3ccc(=O)[nH]c3=O)[C@H](O)[C@@H]2O)O[C@H](CN)[C@@H]1O` (stereo partly drawn) [Example 8, 16-((R)-{[(3R,4S,5R)-5-(Aminomethyl)-4-hydroxy-3-methoxytetrahydro-2-furanyl]oxy}{(2S,3S,4R,5R)-5-[2,4-dioxo-3,4-dihydro-1 (2H)-pyrimidinyl]-3,4-dihydroxytetrahydro-2-furanyl}methyl)-9-(1-hydroxy-2-methylpropyl)-6-(2-iminohexahydro-4-pyrimidinyl)-2-isopropyl-15-[12-(4-morpholinyl)dodecyl]-4,7,10-trioxo-3,5,8,11,15-pentaazaheptadecane-1,17-dioic Acid], the MIC in the assay with E. faecalis GC 2242 (GC2242, 18 h) is more than 32 µg/mL; in the assay on S. aureus GC 1131 (GC1131, 18 h), more than 32 µg/mL; in the assay with CNS GC 4538 (18 h), more than 32 µg/mL; in the assay with P. aeruginosa GC 2214 (GC2214, 18 h), more than 32 µg/mL; in the assay on E. coli GC 2203 (GC2203, 18 h), more than 32 µg/mL; with E. coli GC 4560, more than 32 µg/mL. Moreover, the MIC in the assay with E. coli GC 3226 (GC3226, 18 h) was more than 32 µg/mL; in the assay on CNS GC 4537 (18 h), more than 32 µg/mL; in the assay on E. coli GC 4559 (GC4559, 18 h) it was more than 32 µg/mL; in the assay with P. rettgeri GC 4530 (GC4530, 18 h) it was more than 32 µg/mL; in the assay with S. aureus GC 2216 (GC2216, 18 h), more than 32 µg/mL; in the assay on E. faecalis GC 4555 (GC4555, 18 h) it was more than 32 µg/mL. Further, the minimal inhibitory concentration (MIC) in the assay on E. faecalis GC 842 (GC842, 18 h) was more than 32 µg/mL; in the assay with S. marcescens GC 4077 (GC4077, 18 h), more than 32 µg/mL; with M. morganii GC 4531 (GC4531, 18 h), more than 32 µg/mL; with CNS GC 4547 (18 h), more than 32 µg/mL; in the assay on P. aeruginosa GC 4532 (GC4532, 18 h), more than 32 µg/mL; in the assay with K. pneumoniae GC 4534 (GC4534, 18 h) it was more than 32 µg/mL. Besides, the minimal inhibitory concentration (MIC) was more than 32 µg/mL with E. cloacae GC 3783 (GC3783, 18 h) and more than 32 µg/mL in the assay on S. aureus GC 4536 (GC4536, 18 h).

Regarding `CCCCCN(CCCNC(=O)C(NC(=O)C(NC(=O)NC(C(=O)O)C(C)C)C1CCNC(=N)N1)C(O)C(C)C)C(C(=O)O)[C@@H](OC1O[C@H](CN)[C@H](O)[C@H]1OC)[C@H]1O[C@@H](n2ccc(=O)[nH]c2=O)[C@H](O)[C@@H]1O` (stereo partly drawn) [Example 9, 16-((R)-{[(3R,4S,5R)-5-(Aminomethyl)-4-hydroxy-3-methoxytetrahydro-2-furanyl]oxy}{(2S,3S,4R,5R)-5-[2,4-dioxo-3,4-di hydro-1 (2H)-pyrimidinyl]-3,4-dihydroxytetrahydro-2-furanyl}methyl)-9-(1-hydroxy-2-methylpropyl)-6-(2-iminohexahydro-4-pyrimidinyl)-2-isopropyl-4,7,10-trioxo-15-pentyl-3,5,8,11,15-pentaazaheptadecane-1,17-dioic Acid], the minimum inhibitory concentration (MIC) in the assay with E. faecalis GC 2242 (setting [1]) was more than 32 µg/mL; in the assay on S. aureus GC 1131 (setting [2]) it was more than 32 µg/mL; in the assay with CNS GC 4538 (setting [3]) it was more than 32 µg/mL; in the assay with P. aeruginosa GC 2214 (setting [4]), more than 32 µg/mL; in the assay on E. coli GC 2203 (setting [5]) it was more than 32 µg/mL; in the assay on E. coli GC 4560, 32 µg/mL (≈ 31.5 µM). The minimal inhibitory concentration (MIC) in the assay on E. coli GC 3226 (setting [6]), in the assay with CNS GC 4537 (setting [7]), with E. coli GC 4559 (setting [8]), in the assay with P. rettgeri GC 4530 (setting [9]), with S. aureus GC 2216 (setting [10]) and with E. faecalis GC 4555 (setting [11]) was more than 32 µg/mL in each case. In addition, the MIC in the assay on E. faecalis GC 842 (setting [12]), in the assay with S. marcescens GC 4077 (setting [13]), with M. morganii GC 4531 (setting [14]), in the assay on CNS GC 4547 (setting [15]), with P. aeruginosa GC 4532 (setting [16]) and with K. pneumoniae GC 4534 (setting [17]) was more than 32 µg/mL each time. Further, the MIC in the assay with E. cloacae GC 3783 (setting [18]) and in the assay on S. aureus GC 4536 (setting [19]) was more than 32 µg/mL throughout.

On to `CO[C@H]1C(O[C@H](C(C(=O)O)N(CCCCCCCCCCCC[N+]2(C)CCOCC2)CCCNC(=O)C(NC(=O)C(NC(=O)NC(C(=O)O)C(C)C)C2CCNC(=N)N2)C(O)C(C)C)[C@H]2O[C@@H](n3ccc(=O)[nH]c3=O)[C@H](O)[C@@H]2O)O[C@H](CN)[C@@H]1O` (stereo partly drawn) [Example 10, 4-[13-((2R)-2-{[(3R,4S,5R)-5-(Aminomethyl)-4-hydroxy-3-methoxytetrahydro-2-furanyl]oxy}-1-carboxy-2-{(2S,3S,4R,5R)-5-[2,4-dioxo-3,4-dihydro-1 (2H)-pyrimidinyl]-3,4-dihydroxytetrahydro-2-furanyl}ethyl)-26-carboxy-19-(1-hydroxy-2-methylpropyl)-22-(2-iminohexahydro-4-pyrimidinyl) -27-methyl-18,21,24-trioxo-13,17,20,23,25-pentaazaoctacos-1-yl]-4-methylmorpholin-4-ium], for which the MIC was more than 32 µg/mL in the assay with E. faecalis GC 2242 (setting [1]); more than 32 µg/mL in the assay with S. aureus GC 1131 (setting [2]); more than 32 µg/mL in the assay with CNS GC 4538 (setting [3]); more than 32 µg/mL with P. aeruginosa GC 2214 (setting [4]); more than 32 µg/mL in the assay with E. coli GC 2203 (setting [5]); 16 µg/mL with E. coli GC 4560. The MIC with E. coli GC 3226 (setting [6]), with CNS GC 4537 (setting [7]), in the assay with E. coli GC 4559 (setting [8]), in the assay with P. rettgeri GC 4530 (setting [9]), with S. aureus GC 2216 (setting [10]) and with E. faecalis GC 4555 (setting [11]) was more than 32 µg/mL in each case. Further, the minimal inhibitory concentration (MIC) with E. faecalis GC 842 (setting [12]), in the assay on S. marcescens GC 4077 (setting [13]), with M. morganii GC 4531 (setting [14]), in the assay on CNS GC 4547 (setting [15]), in the assay on P. aeruginosa GC 4532 (setting [16]) and with K. pneumoniae GC 4534 (setting [17]) was more than 32 µg/mL each time. For the same molecule, the MIC in the assay on E. cloacae GC 3783 (setting [18]) and in the assay with S. aureus GC 4536 (setting [19]) was more than 32 µg/mL each time.
